{
  "source": "the NIST ThermoML archive (doi:10.1016/j.jct.2010.01.008)",
  "key": {"[1]": {"conditions": "298.15 K; 101.33 kPa; Liquid; Vibrating tube method"}, "[2]": {"experiment": "refractive index (Na D-line) (dimensionless)", "conditions": "298.15 K; 101.33 kPa; Liquid; Automatic Refractometer"}, "[3]": {"experiment": "xn = mol fraction of the nth substance listed", "conditions": "298.15 K, 101.3 kPa, Liquid, Vibrating tube method"}},
  "note": "± gives the expanded uncertainty stated by the source.",
  "data": [
    {"smiles": "CCOS(=O)(=O)[O-].CC[n+]1cccc(C)c1", "note": "[1-ethyl-3-methylpyridinium ethylsulfate]", "values": [
      {"measurement": "mass density", "setting": "[1]", "value": "1219.61 ± 0.42", "unit": "kg/m3"},
      {"measurement": "refractive index", "setting": "[2]", "value": "1.50591 ± 0.00022"}
    ]},
    {"smiles": "Cc1ccccc1", "note": "[toluene] + CCCCCCCCC", "values": [
      {"measurement": "mass density", "setting": "[3]; x2 = 0", "value": "862.17 ± 0.14", "unit": "kg/m3"}
    ]},
    {"smiles": "CCCCCCC", "note": "[heptane] + Cc1ccccc1", "values": [
      {"measurement": "mass density", "setting": "[3]; x1 = 1", "value": "679.56 ± 0.2", "unit": "kg/m3"}
    ]},
    {"smiles": "Cc1ccccc1", "note": "[toluene] + CCCCCCCC", "values": [
      {"measurement": "mass density", "setting": "[3]; x2 = 0", "value": "862.17 ± 0.14", "unit": "kg/m3"}
    ]},
    {"smiles": "Cc1ccccc1", "note": "[toluene] + CCCCCCC", "values": [
      {"measurement": "mass density", "setting": "[3]; x2 = 0", "value": "862.17 ± 0.14", "unit": "kg/m3"},
      {"measurement": "mass density", "setting": "[3]; x2 = 0.0974", "value": "838.12 ± 0.28", "unit": "kg/m3"},
      {"measurement": "mass density", "setting": "[3]; x2 = 0.1996", "value": "814.81 ± 0.27", "unit": "kg/m3"},
      {"measurement": "mass density", "setting": "[3]; x2 = 0.2997", "value": "793.52 ± 0.26", "unit": "kg/m3"},
      {"measurement": "mass density", "setting": "[3]; x2 = 0.397", "value": "774.31 ± 0.25", "unit": "kg/m3"},
      {"measurement": "mass density", "setting": "[3]; x2 = 0.497", "value": "755.94 ± 0.24", "unit": "kg/m3"},
      {"measurement": "mass density", "setting": "[3]; x2 = 0.5961", "value": "738.9 ± 0.24", "unit": "kg/m3"},
      {"measurement": "mass density", "setting": "[3]; x2 = 0.6967", "value": "722.76 ± 0.24", "unit": "kg/m3"},
      {"measurement": "mass density", "setting": "[3]; x2 = 0.7958", "value": "707.78 ± 0.24", "unit": "kg/m3"},
      {"measurement": "mass density", "setting": "[3]; x2 = 0.8973", "value": "693.24 ± 0.23", "unit": "kg/m3"}
    ]},
    {"smiles": "CCCCCCCC", "note": "[octane] + Cc1ccccc1", "values": [
      {"measurement": "mass density", "setting": "[3]; x1 = 0.0982", "value": "838.13 ± 0.27", "unit": "kg/m3"},
      {"measurement": "mass density", "setting": "[3]; x1 = 0.1977", "value": "816.31 ± 0.26", "unit": "kg/m3"},
      {"measurement": "mass density", "setting": "[3]; x1 = 0.2975", "value": "796.62 ± 0.24", "unit": "kg/m3"},
      {"measurement": "mass density", "setting": "[3]; x1 = 0.3983", "value": "778.64 ± 0.23", "unit": "kg/m3"},
      {"measurement": "mass density", "setting": "[3]; x1 = 0.5005", "value": "761.92 ± 0.23", "unit": "kg/m3"},
      {"measurement": "mass density", "setting": "[3]; x1 = 0.5988", "value": "747.35 ± 0.22", "unit": "kg/m3"},
      {"measurement": "mass density", "setting": "[3]; x1 = 0.699", "value": "733.63 ± 0.22", "unit": "kg/m3"},
      {"measurement": "mass density", "setting": "[3]; x1 = 0.7966", "value": "721.31 ± 0.22", "unit": "kg/m3"},
      {"measurement": "mass density", "setting": "[3]; x1 = 0.8955", "value": "709.92 ± 0.22", "unit": "kg/m3"},
      {"measurement": "mass density", "setting": "[3]; x1 = 1", "value": "698.6 ± 0.19", "unit": "kg/m3"}
    ]},
    {"smiles": "CCCCCCCCC", "note": "[nonane] + Cc1ccccc1", "values": [
      {"measurement": "mass density", "setting": "[3]; x1 = 0.096", "value": "838.74 ± 0.27", "unit": "kg/m3"},
      {"measurement": "mass density", "setting": "[3]; x1 = 0.1942", "value": "817.91 ± 0.25", "unit": "kg/m3"},
      {"measurement": "mass density", "setting": "[3]; x1 = 0.2952", "value": "799.09 ± 0.24", "unit": "kg/m3"},
      {"measurement": "mass density", "setting": "[3]; x1 = 0.3954", "value": "782.63 ± 0.23", "unit": "kg/m3"},
      {"measurement": "mass density", "setting": "[3]; x1 = 0.4954", "value": "768.02 ± 0.23", "unit": "kg/m3"},
      {"measurement": "mass density", "setting": "[3]; x1 = 0.5929", "value": "755.35 ± 0.23", "unit": "kg/m3"},
      {"measurement": "mass density", "setting": "[3]; x1 = 0.6939", "value": "743.54 ± 0.24", "unit": "kg/m3"},
      {"measurement": "mass density", "setting": "[3]; x1 = 0.7939", "value": "732.97 ± 0.25", "unit": "kg/m3"},
      {"measurement": "mass density", "setting": "[3]; x1 = 0.8947", "value": "723.28 ± 0.26", "unit": "kg/m3"},
      {"measurement": "mass density", "setting": "[3]; x1 = 1", "value": "713.99 ± 0.26", "unit": "kg/m3"}
    ]}
  ]
}
